Data on 22 compounds can be found in patent publication US20040116330A1, “Preventive/therapeutic method for cancer” (priority 2001, published 2004).

As a reminder, the melting point is the temperature, or range, at which the solid turns liquid.

Each structure is given as a SMILES string.

Compound `Fc1ccc(/C=C/c2nc(COc3ccc(CCCCn4ccnn4)cc3)co2)cc1` [Compound B2, 1-{4-[4-({2-[(E)-2-(4-fluorophenyl)ethenyl]-1,3-oxazol-4-yl}methoxy)phenyl]butyl}-1H-1,2,3-triazole] yielded a melting point of 124 to 125 °C.
With `Fc1ccc(/C=C/c2nc(COc3cccc(CCCn4ccnn4)c3)co2)cc1` [Compound B3, 1-{3-[3-({2-[(E)-2-(4-fluorophenyl)ethenyl]-1,3-oxazol-4-yl}methoxy)phenyl]propyl}-1H-1,2,3-triazole] the figure was 105 to 106 °C.
In the case of `FC(F)(F)c1ccc(/C=C/c2nc(COc3ccc(CCCn4ccnn4)cc3)co2)cc1` [Compound B5, 1-(3-{4-[(2-((E)-2-[4-(trifluoromethyl)phenyl]ethenyl)-1,3-oxazol-4-yl)methoxy]phenyl)propyl)-1H-1,2,3-triazole] it was 157 to 158 °C.
In the case of `FC(F)(F)c1ccc(/C=C/c2nc(COc3cccc(CCCn4ccnn4)c3)co2)cc1` [Compound B6, 1-(3-{3-[(2-((E)-2-[4-(trifluoromethyl)phenyl]ethenyl}-1,3-oxazol-4-yl)methoxy]phenyl}propyl)-1H-1,2,3-triazole] it was 115 to 116 °C; in that of `Fc1ccc(/C=C/c2nc(COc3ccc(CCCCn4ccnn4)cc3)co2)c(F)c1` [Compound B7, 1-{4-[4-({2-[(E)-2-(2,4-difluorophenyl)ethenyl]-1,3-oxazol-4-yl}methoxy)phenyl]butyl}-1H-1,2,3-triazole], 115 to 117 °C; in that of `Fc1ccc(/C=C/c2nc(COc3cccc(CCCn4ccnn4)c3)co2)c(F)c1` [Compound B8, 1-{3-[3-({2-[(E)-2-(2,4-difluorophenyl)ethenyl]-1,3-oxazol-4-yl}methoxy)phenyl]propyl}-1H-1,2,3-triazole], 89 to 90 °C.
As to `Cc1ccc(/C=C/c2nc(COc3ccc(CCCCn4ccnc4CCO)cc3)co2)cc1` [Compound B10, 2-[1-[4-[4-[[2-[(E)-2-(4-methylphenyl)ethenyl]-1,3-oxazol-4-yl]methoxy]phenyl]butyl]-1H-imidazol-2-yl]-1-ethanol], the melting point is 108 to 109 °C.
In turn, `Cc1cccc(/C=C/c2nc(COc3ccc(CCCCn4ccnc4CCO)cc3)co2)c1` [Compound B11, 2-[1-[4-[4-[[2-[(E)-2-(3-methylphenyl)ethenyl]-1,3-oxazol-4-yl]methoxy]phenyl]butyl]-1H-imidazol-2-yl]-1-ethanol] came in with a melting point of 109 to 111 °C.
On to `Cc1ccccc1/C=C/c1nc(COc2ccc(CCCCn3ccnc3CCO)cc2)co1` [Compound B12, 2-[1-[4-[4-[[2-[(E)-2-(2-methylphenyl)ethenyl]-1,3-oxazol-4-yl]methoxy]phenyl]butyl]-1H-imidazol-2-yl]-1-ethanol], for which the melting point is 91 to 93 °C.
With `CCc1ccc(/C=C/c2nc(COc3ccc(CCCCn4ccnc4CCO)cc3)co2)cc1` [Compound B13, 2-[1-[4-[4-[[2-[(E)-2-(4-ethylphenyl)ethenyl]-1,3-oxazol-4-yl]methoxy]phenyl]butyl]-1H-imidazol-2-yl]-1-ethanol] the figure was 94 to 95 °C.
In the case of `OCCc1nccn1CCCCc1ccc(OCc2coc(/C=C/c3ccc(F)cc3)n2)cc1` [Compound B14, 2-(1-{4-[4-({2-[(E)-2-(4-fluorophenyl)ethenyl]-1,3-oxazol-4-yl}methoxy)phenyl]butyl)-1H-imidazol-2-yl)-1-ethanol] it was 130 to 132 °C; in that of `OCCc1nccn1CCCCc1ccc(OCc2coc(/C=C/c3ccc(Cl)cc3)n2)cc1` [Compound B15, 2-[1-[4-[4-[[2-[(E)-2-(4-chlorophenyl)ethenyl]-1,3-oxazol-4-yl]methoxy]phenyl]butyl]-1H-imidazol-2-yl]-1-ethanol], 127 to 128 °C.
In the case of `OCCc1nccn1CCCCc1ccc(OCc2coc(/C=C/c3ccc(Br)cc3)n2)cc1` [Compound B16, 2-[1-[4-[4-[[2-[(E)-2-(4-bromophenyl)ethenyl]-1,3-oxazol-4-yl]methoxy]phenyl]butyl]-1H-imidazol-2-yl]-1-ethanol] it was 149 to 150 °C; in that of `OCCc1nccn1CCCCc1ccc(OCc2coc(/C=C/c3ccc(F)cc3F)n2)cc1` [Compound B19, 2-[1-[4-[4-[[2-[(E)-2-(2,4-difluorophenyl)ethenyl]-1,3-oxazol-4-yl]methoxy]phenyl]butyl]-1H-imidazol-2-yl]-1-ethanol], 93 to 95 °C; in that of `OCCc1nccn1CCCc1ccc(OCc2coc(/C=C/c3ccc(F)cc3F)n2)cc1` [Compound B20, 2-[1-[3-[4-[[2-[(E)-2-(2,4-difluorophenyl)ethenyl]-1,3-oxazol-4-yl]methoxy]phenyl]propyl]-1H-imidazol-2-yl]-1-ethanol], 94 to 96 °C.
In the case of `Cc1cccc(/C=C/c2nc(COc3ccc(CCCCn4ccnc4CC(O)CO)cc3)co2)c1` (stereo not shown) [Compound B22, 3-(1-{4-[4-({2-[(E)-2-(3-methylphenyl)ethenyl]-1,3-oxazol-4-yl}methoxy)phenyl]butyl}-1H-imidazol-2-yl)-1,2-propanediol], the melting point is 102 to 104 °C.
Turning to `OCC(O)Cc1nccn1CCCCc1ccc(OCc2coc(/C=C/c3ccc(F)cc3)n2)cc1` (stereo not shown) [Compound B23, 3-(1-{4-[4-({2-[(E)-2-(4-fluorophenyl)ethenyl]-1,3-oxazol-4-yl}methoxy)phenyl]butyl}-1H-imidazol-2-yl)-1,2-propanediol], the melting point fell in the range of 114 to 116 °C.
In the case of `OCC(O)Cc1nccn1CCCCc1ccc(OCc2coc(/C=C/c3ccc(C(F)(F)F)cc3)n2)cc1` (stereo not shown) [Compound B24, 3-[1-(4-(4-[(2-{(E)-2-[4-(trifluoromethyl)phenyl]ethenyl)-1,3-oxazol-4-yl)methoxy]phenyl}butyl)-1H-imidazol-2-yl]-1,2-propanediol] it was 142 to 143 °C; in that of `OCC(O)Cc1nccn1CCCc1cccc(OCc2coc(/C=C/c3ccc(C(F)(F)F)cc3)n2)c1` (stereo not shown) [Compound B25, 3-[1-(3-{3-[(2-{(E)-2-[4-(trifluoromethyl)phenyl]ethenyl}-1,3-oxazol-4-yl)methoxy]phenyl]propyl)-1H-imidazol-2-yl]-1,2-propanediol], 102 to 104 °C; in that of `OCC(O)Cc1nccn1CCCCc1ccc(OCc2coc(/C=C/c3ccc(F)cc3F)n2)cc1` (stereo not shown) [Compound B26, 3-(1-{4-[4-({2-[(E)-2-(2,4-difluorophenyl)ethenyl]-1,3-oxazol-4-yl)methoxy)phenyl]butyl}-1H-imidazol-2-yl)-1,2-propanediol], 126 to 128 °C.
`OCC(O)Cc1nccn1CCCc1cccc(OCc2coc(/C=C/c3ccc(F)cc3F)n2)c1` (stereo not shown) [Compound B27, 3-(1-{3-[3-({2-[(E)-2-(2,4-difluorophenyl)ethenyl]-1,3-oxazol-4-yl}methoxy)phenyl]propyl}-1H-imidazol-2-yl)-1,2-propanediol] registered a melting point of 92 to 94 °C.
In the case of `OCC(O)Cc1nccn1CCCCc1ccc(OCc2coc(/C=C/c3c(F)cccc3F)n2)cc1` (stereo not shown) [Compound B28, 3-[1-[4-[4-[[2-[(E)-2-(2,6-difluorophenyl)ethenyl]-1,3-oxazol-4-yl]methoxy]phenyl]butyl]-1H-imidazol-2-yl]-1,2-propanediol] it was 123 to 125 °C.
